Data from patent publication US11000033B2, “Ketone or oxime compound, and herbicide” (NISSAN CHEMICAL CORPORATION, priority 2014, dated 2021).

Tests used:
Assay type in all cases: in vivo
rapeseed [1] = assay: Test Example 4: effect on crop by soil treatment (symbol g); settings: application herbicide amount 320 g/ha
Text: (§1) Herbicidal Effect Test by Soil Treatment
(§2) Sterilized diluvial soil was placed in a plastic box having a length of 21 cm, a width of 13 cm, and a depth of 7 cm. Each of the seeds of Digitaria ciliaris, Setaria viridis, Echinochloa crus-galli var. crus-galli, Avena fatua, Alopecurus myosuroides, Lolium multiflorum Lam., Apera spica-venti, Abutilon theophrasti, Amaranthus retroflexus, Chenopodium album, Stellaria media, Galium spurium, Veronica persica, corn, soybean, rice, wheat, beet, and rapeseed was sowed in a spot-like manner and was covered with the soil of a thickness of about 1.5 cm. […] The plastic box was placed in a greenhouse of 25° C. to 30° C. to grow plant.

Lolium multiflorum Lam. [2] = assay: Test Example 5: herbicidal effect by foliage application, plastic box (symbol K); settings: 320 g/ha, 3 weeks after application
Method in brief: (§3)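 Herbicide, formulated as an emulsion and diluted in water, is sprayed onto the aerial parts of 14-day seedlings. These were grown at 25° C. to 30° C. in sterilized diluvial soil; effects are graded after 3 weeks.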

Alopecurus myosuroides [3] = assay: Test Example 5: herbicidal effect by foliage application, plastic box (symbol J); settings: 320 g/ha, 3 weeks after application
Method in brief: as §3

Alopecurus myosuroides [4] = assay: Test Example 4: herbicidal effect by soil treatment (symbol J); settings: application herbicide amount 320 g/ha
Text: as §1
(§4) Sterilized diluvial soil was placed in a plastic box having a length of 21 cm, a width of 13 cm, and a depth of 7 cm. Each of the seeds of Digitaria ciliaris, Setaria viridis, Echinochloa crus-galli var. crus-galli, Avena fatua, Alopecurus myosuroides, Lolium multiflorum Lam., Apera spica-venti, Abutilon theophrasti, Amaranthus retroflexus, Chenopodium album, Stellaria media, Galium spurium, Veronica persica, corn, soybean, rice, wheat, beet, and rapeseed was sowed in a spot-like manner and was covered with the soil of a thickness of about 1.5 cm. Subsequently, the emulsion agent of the compound present invention prepared in accordance with Formulation Example 2 was diluted with water so as to be a predetermined herbicide amount and the diluted emulsion agent was uniformly applied to the surface of the soil with a small-size spray. The plastic box was placed in a greenhouse of 25° C. to 30° C. to grow plant. 3 weeks later from the herbicide application, the effect to each plant was investigated in accordance with the criteria of Test Example 1.

Avena fatua [5] = assay: Test Example 4: herbicidal effect by soil treatment (symbol I); settings: application herbicide amount 320 g/ha
Text: as §1, §4

Abutilon theophrasti [6] = assay: Test Example 4: herbicidal effect by soil treatment (symbol M); settings: application herbicide amount 320 g/ha
Text: as §1, §4

Setaria viridis [7] = assay: Test Example 4: herbicidal effect by soil treatment (symbol G); settings: application herbicide amount 320 g/ha
Text: as §1, §4

Abutilon theophrasti [8] = assay: Test Example 5: herbicidal effect by foliage application, plastic box (symbol M); settings: 320 g/ha, 3 weeks after application
Method in brief: as §3

[9] = tested on: Echinochloa crus-galli var. crus-galli; assay: Test Example 4: herbicidal effect by soil treatment (symbol H); settings: application herbicide amount 320 g/ha
Text: as §1, §4

beet [10] = assay: Test Example 5: effect on crop by foliage application, plastic box (symbol f); settings: 320 g/ha, 3 weeks after application
Method in brief: (§5)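 Box culture: sterile diluvial soil, seeds spot-sown, ~1.5 cm cover, raised under glass at 25–30° C.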

soybean [11] = assay: Test Example 4: effect on crop by soil treatment (symbol d); settings: application herbicide amount 320 g/ha
Text: as §1, §2

Digitaria ciliaris [12] = assay: Test Example 4: herbicidal effect by soil treatment (symbol F); settings: application herbicide amount 320 g/ha
Text: as §1, §4

corn [13] = assay: Test Example 5: effect on crop by foliage application, plastic box (symbol c); settings: 320 g/ha, 3 weeks after application
Method in brief: as §5

rice plant = assay: Test Example 5: effect on crop by foliage application, plastic box (symbol b); settings: 320 g/ha, 3 weeks after application
Method in brief: as §5

Cyperus difformis = assay: Test Example 3: herbicidal effect by foliage application, Wagner pot (symbol E); settings: application herbicide amount 320 g/ha
Method in brief: (§6)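 Post-emergence, paddy-type test: seedlings 14 d old in shallow-flooded (0.1–0.5 cm) alluvial soil, 25–30 °C greenhouse. Emulsion diluted to target rate, sprayed on leaves. Read-out: visual effect on each species at 3 weeks, per set criteria.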

Galium spurium = assay: Test Example 5: herbicidal effect by foliage application, plastic box (symbol Q); settings: 320 g/ha, 3 weeks after application
Method in brief: as §3

wheat [14] = assay: Test Example 5: effect on crop by foliage application, plastic box (symbol e); settings: 320 g/ha, 3 weeks after application
Method in brief: as §5

beet [15] = assay: Test Example 4: effect on crop by soil treatment (symbol f); settings: application herbicide amount 320 g/ha
Text: as §1, §2

Veronica persica [16] = assay: Test Example 5: herbicidal effect by foliage application, plastic box (symbol R); settings: 320 g/ha, 3 weeks after application
Method in brief: as §3

rice = assay: Test Example 4: effect on crop by soil treatment (symbol b); settings: application herbicide amount 320 g/ha
Text: as §1, §2

Avena fatua [17] = assay: Test Example 5: herbicidal effect by foliage application, plastic box (symbol I); settings: 320 g/ha, 3 weeks after application
Method in brief: as §3

Amaranthus retroflexus [18] = assay: Test Example 5: herbicidal effect by foliage application, plastic box (symbol N); settings: 320 g/ha, 3 weeks after application
Method in brief: as §3

rapeseed [19] = assay: Test Example 5: effect on crop by foliage application, plastic box (symbol g); settings: 320 g/ha, 3 weeks after application
Method in brief: as §5

Amaranthus retroflexus [20] = assay: Test Example 4: herbicidal effect by soil treatment (symbol N); settings: application herbicide amount 320 g/ha
Text: as §1, §4

Stellaria media [21] = assay: Test Example 4: herbicidal effect by soil treatment (symbol P); settings: application herbicide amount 320 g/ha
Text: as §1, §4

corn [22] = assay: Test Example 4: effect on crop by soil treatment (symbol c); settings: application herbicide amount 320 g/ha
Text: as §1, §2

Stellaria media [23] = assay: Test Example 5: herbicidal effect by foliage application, plastic box (symbol P); settings: 320 g/ha, 3 weeks after application
Method in brief: as §3

soybean [24] = assay: Test Example 5: effect on crop by foliage application, plastic box (symbol d); settings: 320 g/ha, 3 weeks after application
Method in brief: as §5

[25] = tested on: Echinochloa crus-galli var. crus-galli; assay: Test Example 5: herbicidal effect by foliage application, plastic box (symbol H); settings: 320 g/ha, 3 weeks after application
Method in brief: as §3

[26] = tested on: Echinochloa crus-galli var. crus-galli; assay: Test Example 3: herbicidal effect by foliage application, Wagner pot (symbol H); settings: application herbicide amount 320 g/ha
Method in brief: as §6

Setaria viridis [27] = assay: Test Example 5: herbicidal effect by foliage application, plastic box (symbol G); settings: 320 g/ha, 3 weeks after application
Method in brief: as §3

Digitaria ciliaris [28] = assay: Test Example 5: herbicidal effect by foliage application, plastic box (symbol F); settings: 320 g/ha, 3 weeks after application
Method in brief: as §3

[29] = tested on: directly sowed rice plant; assay: Test Example 3: effect on crop by foliage application, Wagner pot (symbol b); settings: application herbicide amount 320 g/ha
Method in brief: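 Greenhouse culture at 25–30 °C of seeded rice, Cyperus difformis, Leptochloa chinensis and Echinochloa crus-galli var. crus-galli, in alluvial soil held under 0.1–0.5 cm of water in a Wagner pot.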

Apera spica-venti [30] = assay: Test Example 4: herbicidal effect by soil treatment (symbol L); settings: application herbicide amount 320 g/ha
Text: as §1, §4

wheat [31] = assay: Test Example 4: effect on crop by soil treatment (symbol e); settings: application herbicide amount 320 g/ha
Text: as §1, §2

Apera spica-venti [32] = assay: Test Example 5: herbicidal effect by foliage application, plastic box (symbol L); settings: 320 g/ha, 3 weeks after application
Method in brief: as §3

Veronica persica [33] = assay: Test Example 4: herbicidal effect by soil treatment (symbol R); settings: application herbicide amount 320 g/ha
Text: as §1, §4

Leptochloa chinensis = assay: Test Example 3: herbicidal effect by foliage application, Wagner pot (symbol D); settings: application herbicide amount 320 g/ha
Method in brief: as §6

Lolium multiflorum Lam. [34] = assay: Test Example 4: herbicidal effect by soil treatment (symbol K); settings: application herbicide amount 320 g/ha
Text: as §1, §4

Structure (SMILES): CCOC(=O)C(C(=O)C1CCCC1)C1CC(O)=C(c2c(C)cc(C)cc2C)C1=O (stereo not drawn) [2-027]
- g: rapeseed, effect on crop grade (rapeseed [1]): 0 (Herbicidal ratio of 5% or lower (almost no effect))
- K: Lolium multiflorum Lam., herbicidal effect grade (Lolium multiflorum Lam. [2]): 4 (Herbicidal ratio of 70% or higher and lower than 90%)
- J: Alopecurus myosuroides, herbicidal effect grade (Alopecurus myosuroides [3]): 2 (Herbicidal ratio of 20% or higher and lower than 40%)
- J: Alopecurus myosuroides, herbicidal effect grade (Alopecurus myosuroides [4]): 1 (Herbicidal ratio of 5% or higher and lower than 20%)
- I: Avena fatua, herbicidal effect grade (Avena fatua [5]): 0 (Herbicidal ratio of 5% or lower (almost no effect))
- M: Abutilon theophrasti, herbicidal effect grade (Abutilon theophrasti [6]): 0 (Herbicidal ratio of 5% or lower (almost no effect))
- G: Setaria viridis, herbicidal effect grade (Setaria viridis [7]): 5 (Herbicidal ratio of 90% or more (almost completely withered))
- M: Abutilon theophrasti, herbicidal effect grade (Abutilon theophrasti [8]): 0 (Herbicidal ratio of 5% or lower (almost no effect))
- H: Echinochloa crus-galli var. crus-galli, herbicidal effect grade [9]: 3 (Herbicidal ratio of 40% or higher and lower than 70%)
- f: beet, effect on crop grade (beet [10]): 0 (Herbicidal ratio of 5% or lower (almost no effect))
- d: soybean, effect on crop grade (soybean [11]): 0 (Herbicidal ratio of 5% or lower (almost no effect))
- F: Digitaria ciliaris, herbicidal effect grade (Digitaria ciliaris [12]): 3 (Herbicidal ratio of 40% or higher and lower than 70%)
- c: corn, effect on crop grade (corn [13]): 1 (Herbicidal ratio of 5% or higher and lower than 20%)
- b: directly sowed rice plant, effect on crop grade (rice plant): 4 (Herbicidal ratio of 70% or higher and lower than 90%)
- herbicidal effect on E, grade 0-5 (Cyperus difformis): 0 (Herbicidal ratio of 5% or lower (almost no effect))
- Q: Galium spurium, herbicidal effect grade (Galium spurium): 0 (Herbicidal ratio of 5% or lower (almost no effect))
- e: wheat, effect on crop grade (wheat [14]): 0 (Herbicidal ratio of 5% or lower (almost no effect))
- f: beet, effect on crop grade (beet [15]): 0 (Herbicidal ratio of 5% or lower (almost no effect))
- R: Veronica persica, herbicidal effect grade (Veronica persica [16]): 0 (Herbicidal ratio of 5% or lower (almost no effect))
- b: directly sowed rice plant, effect on crop grade (rice): 4 (Herbicidal ratio of 70% or higher and lower than 90%)
- I: Avena fatua, herbicidal effect grade (Avena fatua [17]): 1 (Herbicidal ratio of 5% or higher and lower than 20%)
- N: Amaranthus retroflexus, herbicidal effect grade (Amaranthus retroflexus [18]): 0 (Herbicidal ratio of 5% or lower (almost no effect))
- g: rapeseed, effect on crop grade (rapeseed [19]): 1 (Herbicidal ratio of 5% or higher and lower than 20%)
- N: Amaranthus retroflexus, herbicidal effect grade (Amaranthus retroflexus [20]): 0 (Herbicidal ratio of 5% or lower (almost no effect))
- P: Stellaria media, herbicidal effect grade (Stellaria media [21]): 0 (Herbicidal ratio of 5% or lower (almost no effect))
- c: corn, effect on crop grade (corn [22]): 1 (Herbicidal ratio of 5% or higher and lower than 20%)
- P: Stellaria media, herbicidal effect grade (Stellaria media [23]): 0 (Herbicidal ratio of 5% or lower (almost no effect))
- d: soybean, effect on crop grade (soybean [24]): 0 (Herbicidal ratio of 5% or lower (almost no effect))
- H: Echinochloa crus-galli var. crus-galli, herbicidal effect grade [25]: 3 (Herbicidal ratio of 40% or higher and lower than 70%)
- herbicidal effect on H (Echinochloa crus-galli var. crus-galli), grade 0-5 [26]: 3 (Herbicidal ratio of 40% or higher and lower than 70%)
- G: Setaria viridis, herbicidal effect grade (Setaria viridis [27]): 5 (Herbicidal ratio of 90% or more (almost completely withered))
- F: Digitaria ciliaris, herbicidal effect grade (Digitaria ciliaris [28]): 0 (Herbicidal ratio of 5% or lower (almost no effect))
- effect on crop b (directly sowed rice plant), grade 0-5 [29]: 5 (Herbicidal ratio of 90% or more (almost completely withered))
- L: Apera spica-venti, herbicidal effect grade (Apera spica-venti [30]): 0 (Herbicidal ratio of 5% or lower (almost no effect))
- e: wheat, effect on crop grade (wheat [31]): 0 (Herbicidal ratio of 5% or lower (almost no effect))
- L: Apera spica-venti, herbicidal effect grade (Apera spica-venti [32]): 0 (Herbicidal ratio of 5% or lower (almost no effect))
- R: Veronica persica, herbicidal effect grade (Veronica persica [33]): 0 (Herbicidal ratio of 5% or lower (almost no effect))
- herbicidal effect on D (Leptochloa chinensis), grade 0-5 (Leptochloa chinensis): 0 (Herbicidal ratio of 5% or lower (almost no effect))
- K: Lolium multiflorum Lam., herbicidal effect grade (Lolium multiflorum Lam. [34]): 2 (Herbicidal ratio of 20% or higher and lower than 40%)
